Like-named read-outs stand apart in the source and are kept apart here.
What was measured:
[1] = Plasma and liver pharmacokinetics following a single oral dose in monkeys (Example 6); type: in vivo; conditions: cynomolgus monkey; for AUC(0-t) / Cmax / Tmax: Cynomolgus monkeys, single oral dose (mg/kg per Table 6: 1a 10, A 25, B 10, C 10, D 50); for AUC(0-t) / Cmax: normalized to 1 μmol/kg dose; for AUC(0-t): read-out: Plasma prodrug AUC0-24; for Cmax: read-out: Plasma prodrug Cmax; for Tmax: read-out: Plasma prodrug Tmax
Method: […] Untreated animals were used for the collection of control liver. Plasma samples were collected at 1, 2, 4, 6, 8, 12 and 24 hours for all compounds and additionally at 0.5 hour (Compounds 1a, B and D), 3 and 10 hours (Compound C), and 32 and 48 hours post dose for Compound A. Terminal liver samples were collected from three animals per time point at 6, 12 and 24 hours post dose for all compounds and additionally at 2 hours (Compounds 1a, B and D), 3 hours (Compound C) and 32 and 48 hours post dose for Compound A. Liver specimens were collected from all animals immediately after the incision. Freezing forceps stored in liquid nitrogen were used to freeze the liver before excision.
(§1) Plasma samples were analyzed for the prodrug and 2′-methylguanosine (2′-MeG) or relevant nucleoside by LC-MS/MS. For protein precipitation and extraction, each plasma sample (50 μL) was treated with 500 μL of 0.2% formic acid in acetonitrile and 20 μL of an appropriate internal standard working solution. After vortexing and centrifugation, 500 μL of the sample extracts were transferred to a new plate, dried under N2 at ˜28° C. and reconstituted with 75 μL of 0.2% FA in water. The extracts were chromatographed on an Aquasil C18 column using a gradient system of 0.2% formic acid in water and acetonitrile. The analytes were detected and quantified by tandem mass spectrometry in positive ion mode on an MDS Sciex API5000 or an API4000 equipped with a Turbo Ionspray® interface. The calibration range was 0.500 (LLOQ) to 200 ng/mL in mouse plasma. The corresponding range for molar units is 1.68 to 673 pmol/mL.
(§2) Liver samples were analyzed for the active species 2′-methylguanosine triphosphate (2′-MeGTP) or relevant nucleoside triphosphate by LC-MS/MS. The triphosphate levels were assayed by homogenizing (on ice) a known weight of mouse liver with 4× volume of 0.95 M trichloroacetic acid (TCA). Appropriate internal standard solution was added to the homogenate followed by neutralization with 20% ammonium hydroxide solution and addition of 500 μL 1% formic acid. The tissue samples were extracted by weak anion exchange solid phase extraction (SPE). Post extraction, the eluates were evaporated under nitrogen, followed by reconstitution before injection onto the LC-MS/MS system. The samples were chromatographed on a Luna NH2 column using a gradient system of ammonium acetate (1 mM to 20 mM and pH 8.0 to pH 10.0) in water and acetonitrile (70:30). The analyte was detected and quantified by tandem mass spectrometry in positive ion mode on an API4000 equipped with a Turbo Ionspray® interface. The calibration range was 10 to 10000 pmol/mL in mouse liver homogenate (50 to 50000 pmol/g of mouse liver).

[2] = Plasma and liver pharmacokinetics following a single oral dose in mice (Example 6); type: in vivo; conditions: CD-1 mice, oral 25 mg/kg, normalized to 1 μmol/kg dose; 1a average of N = 3
Method: For each compound, a single oral dose at 25 mg/kg in PEG 200 (dose volume 5 mL/kg) was administered to [CD-1] mice. Untreated animals were used for the collection of control liver. Terminal liver and plasma samples were collected from three animals per time point at 4, 12 and 24 hours post dose and additionally at 1 hour post dose in one occasion of Compound 1 (see Example 5). Liver specimens were collected from all animals immediately after the incision. Freezing forceps stored in liquid nitrogen were used to freeze the liver before excision.
as §1, §2

Row | SMILES | AUC(0-t) ([1]; in vivo) [nM·h] | Cmax ([1]; in vivo) [nM] | Tmax ([1]; in vivo) [min] | also measured
1 | CCOc1nc(N)nc2c1ncn2[C@@H]1O[C@@H]2COP(=O)(OC(C)C)O[C@H]2[C@@]1(C)F (stereo partly drawn) [Compound A, 6-ethoxy-9-((4aR,6R,7R,7aR)-7-fluoro-2-isopropoxy-7-methyl-2-oxo-tetrahydro-2,5-furo[3,2-d][1,3,2]dioxaphosphinin-6-yl)-9H-purin-2-yl amine] | – | – | – | AUC(0-t) ([1]; plasma): 410 nM·h; Cmax ([1]; plasma): 100 nM; Tmax ([1]; plasma): 120 min
2 | COc1nc(N)nc2c1ncn2[C@@H]1O[C@H](COP(=O)(N[C@@H](C)C(=O)OCC(C)(C)C)Oc2cccc3ccccc23)[C@@H](O)[C@@]1(C)O (stereo partly drawn) [Compound B, L-Alanine, N-(2′-C-methyl-6-O-methyl-P-1-naphthalenyl-5′-guanylyl)-, 2,2-dimethylpropyl ester] | 0.2 | 0.2 | 30 | –
3 | CC(C)(CO)C(=O)SCCOP(=O)(NCc1ccccc1)OCC1OC(n2cnc3c(=O)[nH]c(N)nc32)C(C)(O)C1O (stereo not drawn) [Compound C, 2′-C-methyl-guanosine, 5′-[2-[(3-hydroxy-2,2-dimethyl-1-oxopropyl)thio]ethyl N-(phenylmethyl)phosphoramidate], reference compound] | – | – | – | Plasma prodrug Tmax ([1]; in vivo, po): 360 min; Nucleoside triphosphate in Liver AUC0-24 [2]: 290 pmol·h/g; Nucleoside triphosphate in Liver Cmax [2]: 19 pmol/g
4 | CC(C)OC(=O)[C@H](C)N[P@](=O)(OC[C@H]1O[C@@H](n2ccc(=O)[nH]c2=O)[C@](C)(F)[C@@H]1O)Oc1ccccc1 [Compound D, L-Alanine, N—((P(S),2′R)-2′-deoxy-2′-fluoro-2′-methyl-P-phenyl-5′-uridylyl)-, 1-methylethyl ester] | 3.5 | 1.2 | 30 | –

— patent US8507460B2, “Substituted 3′,5′-cyclic phosphates of purine nucleotide compounds and pharmaceutical compositions for the treatment of viral infections” (priority 2011, dated 2013)
